The test system of test [1] is Streptomyces turgidiscabies 91SY-12. Nature of the test: Antibacterial activity against potato scab pathogen: surfactin sodium in agar medium. As to conditions: 30° C., 3 days. It is filed as cell-based. The method, then:
Each agar medium was smeared with a spore suspension of the potato scab pathogen Streptomyces turgidiscabies 91SY-12 (hereinafter referred to as “the strain 91SY-12”) and incubated at 30° C. for 3 days.

For test [2] the test system is unchanged. To be noted: 10 mg/ml in methanol, 30° C., 11 days. The text has this:
In the same manner as shown in Example 2, the agar medium was smeared with a spore suspension of the strain 91SY-12, and 4 paper disks (8 mm diameter) were placed thereon.

The test system is the same in test [3]. As to conditions: 50 μl per paper disk, 30° C., 6 days.
The subject of test [4] is plant pathogens. To be noted: surfactin alone; reported in JP 06-135811 A; cited from earlier work.

Where two headings read alike, the source gives them in different places. Numbered stars: 1 amine (or outer) side, 2 acyl side, 3 side chain; on linkers, the order of the positions; unused ones are H or OH. Bridge positions count the residues as written; N and C are the ends. Square brackets hold non-standard residues; d marks the D form. Peptide text beside a SMILES is read from it. X1 = CC(C)CCCCCCCCC[C@H](CC(=O)[*:1])O[*:2]

For the compound `CC(C)CCCCCCCCC[C@@H]1CC(=O)N[C@@H](CCC(=O)O)C(=O)N[C@@H](CC(C)C)C(=O)N[C@H](CC(C)C)C(=O)N[C@@H](C(C)C)C(=O)N[C@@H](CC(=O)O)C(=O)N[C@H](CC(C)C)C(=O)N[C@@H](CC(C)C)C(=O)O1` [surfactin sodium] (EL[dL]VD[dL]L; linker N-C via X1), the “inhibition of spore formation” value in test [1] (10 μg/ml in agar medium), in test [1] (50 μg/ml in agar medium) and in test [1] (100 μg/ml in agar medium) was “tendency to inhibit spore formation” throughout.

As for surfactin, the “inhibition of spore formation” value in test [2] (10 μl per paper disk), in test [2] (50 μl per paper disk) and in test [2] (100 μl per paper disk) was “strongly inhibited” in each case. Further, the “inhibitory effect on spore formation” value in test [3] (0.01 mg/ml in methanol) is “no inhibitory effect on spore formation”; in test [3] (0.1 mg/ml in methanol) it was “inhibited, albeit weakly”; in test [3] (1.0 mg/ml in methanol), “inhibited strongly”. Besides, in test [4], the “antibacterial action against plant pathogens” value was “no antibacterial action”.
